Source: patent publication US9555038B2, “Heterocycle-substituted tetracyclic compounds and methods of use thereof for the treatment of viral diseases” (Merck Sharp & Dohme Corp., priority 2013, dated 2017)
Read-outs that look alike come from different tables or passages of the source.

How the values were obtained:
[1] = tested on: HCV replicon 2B; test: Cell-based HCV Replicon Assay A, replicon 2B
Outline: (§1)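 Readout: replicon RNA by real-time RT-PCR, normalised to co-amplified cyclophilin and quantified against replicon total-RNA standard curves. Cells (2000/well) treated 3 days in medium with 5% FBS and 0.5% DMSO, compound in 10 serial dilutions from starting concentrations of 333.3 nM to 1.667 nM.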

[2] = tested on: HCV replicon 1AY93H; test: Cell-based HCV Replicon Assay A, replicon 1AY93H
Outline: as §1

[3] = tested on: HCV replicon 1AQ30D; test: Cell-based HCV Replicon Assay B, replicon 1AQ30D
Outline: (§2)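 EC50 defined as the drug concentration giving a CT increase of 1 above projected baseline, from real-time RT-PCR of replicon RNA using genotype-specific primers and probes. Cells were seeded in 5% FBS, dosed after 24 h and incubated 3 days before lysis.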

[4] = tested on: HCV replicon 1A; test: Cell-based HCV Replicon Assay A, replicon 1A
Outline: as §1

[5] = tested on: HCV replicon 1B; test: Cell-based HCV Replicon Assay B, replicon 1B
Outline: as §2

[6] = Hepatitis C virus, read-out: 1A Q30D IC50 (nM), replicon 1AQ30D
[7] = read-out: 1A Y93H IC50, replicon 1AY93H
[8] = read-out: 1A Q30D IC50, replicon 1AQ30D

`COC(=O)NC(C(=O)N1[C@@H]2C[C@@H]2C[C@H]1c1ncc(-c2ccc3c(c2)cc2n3C(c3cnc(C4CCC4)s3)Oc3cc(-c4cnc([C@@H]5CCCN5C(=O)[C@@H](NC(=O)OC)C(C)C)[nH]4)cc(C)c3-2)[nH]1)C1CCOC(C)(C)C1` (single isomer, unassigned) [Compound 223] showed an IC50 ([1]; Hepatitis C virus, read-out: 2B IC50 (nM), replicon 2B) of 0.115 nM, an IC50 ([2]; Hepatitis C virus, read-out: 1A Y93H IC50 (nM), replicon 1AY93H) of 0.3 nM and an IC50 [3, 6] of 2.98 nM. It also gave an IC50 ([4]; Hepatitis C virus) of 6 pM and an IC50 ([5]; Hepatitis C virus) of 8 pM.

`COC(=O)N[C@H](C(=O)N1CCC[C@H]1c1ncc(-c2cc(F)c3c(c2)OC(c2cnc(C4CC4)s2)n2c-3cc3cc(-c4cnc([C@@H]5C[C@H]6C[C@H]6N5C(=O)[C@@H](NC(=O)OC)C(C)C)[nH]4)ccc32)[nH]1)C(C)C` (single isomer, unassigned) [Compound 300] was tested, and the IC50 ([1]; read-out: 2B IC50, replicon 2B) was 0.011 nM, the IC50 [2, 7] was 0.0041 nM and the IC50 [3, 8] was 0.066 nM. For the same molecule, the IC50 [4] was 3 pM and the IC50 ([5]; Hepatitis C virus) was 3 pM.

For `COC(=O)N[C@H](C(=O)N1CCC[C@H]1c1ncc(-c2cc(F)c3c(c2)OC(c2cnc(C4CC4)s2)n2c-3cc3cc(-c4cnc([C@@H]5C[C@H]6C[C@H]6N5C(=O)[C@@H](NC(=O)OC)C(C)C)[nH]4)ccc32)[nH]1)C(C)C` (single isomer, unassigned) [Compound 301], the IC50 ([1]; read-out: 2B IC50, replicon 2B) was 0.335 nM, the IC50 [2, 7] was 0.22 nM and the IC50 [3, 8] was 2.12 nM. For the same molecule, the IC50 [4] was 1.4 pM and the IC50 [5] was 4 pM.

`COC(=O)N[C@H](C(=O)N1CCC[C@H]1c1ncc(-c2cc(F)c3c(c2)OC(c2cnc(C(C)(C)C)s2)n2c-3cc3cc(-c4cnc([C@@H]5CCCN5C(=O)[C@@H](NC(=O)OC)C(C)C)[nH]4)ccc32)[nH]1)C(C)C` (single isomer, unassigned) [Compound 302] gave an IC50 ([1]; read-out: 2B IC50, replicon 2B) of 0.077 nM, an IC50 [2, 7] of 0.0071 nM and an IC50 [3, 6] of 0.168 nM. For the same molecule, the IC50 ([4]; Hepatitis C virus) was 2.9 pM and the IC50 [5] was 1 pM.

`COC(=O)NC(C(=O)N1CCC[C@H]1c1ncc(-c2ccc3c(c2)cc2n3C(c3cnc(C4CC4)s3)Oc3cc(-c4cnc([C@@H]5CCCN5C(=O)[C@@H](NC(=O)OC)C(C)C)[nH]4)cc(F)c3-2)[nH]1)C1C[C@@H](C)O[C@H](C)C1` (single isomer, unassigned) [Compound 304] showed an IC50 ([1]; read-out: 2B IC50, replicon 2B) of 0.048 nM, an IC50 [2, 7] of 0.123 nM and an IC50 [3, 8] of 0.954 nM. It also gave an IC50 ([4]; Hepatitis C virus) of 2 pM and an IC50 ([5]; Hepatitis C virus) of 3 pM.

`COC(=O)NC(C(=O)N1CCC[C@H]1c1ncc(-c2ccc3c(c2)cc2n3C(c3cnc(C4CC4)s3)Oc3cc(-c4cnc([C@@H]5CCCN5C(=O)[C@@H](NC(=O)OC)C(C)C)[nH]4)cc(F)c3-2)[nH]1)C1C[C@@H](C)O[C@@H](C)C1` (single isomer, unassigned) [Compound 307] showed an IC50 ([1]; read-out: 2B IC50, replicon 2B) of 0.006 nM, an IC50 [2, 7] of 0.0083 nM and an IC50 [3, 6] of 0.047 nM. For the same molecule, the IC50 [4] was 4.2 pM and the IC50 ([5]; Hepatitis C virus) was 5 pM.

`COC(=O)NC(C(=O)N1CCC[C@H]1c1ncc(-c2ccc3c(c2)cc2n3C(c3cnc(C4CC4)s3)Oc3cc(-c4cnc([C@@H]5CCCN5C(=O)[C@@H](NC(=O)OC)C(C)C)[nH]4)cc(F)c3-2)[nH]1)C1CCOC(C)(C)C1` (single isomer, unassigned) [Compound 308] gave an IC50 ([1]; read-out: 2B IC50, replicon 2B) of 0.047 nM, an IC50 [2, 7] of 0.0757 nM and an IC50 [3, 8] of 0.496 nM. For the same molecule, the IC50 [4] was 4.1 pM and the IC50 ([5]; Hepatitis C virus) was 3 pM.

Work on `COC(=O)NC(C(=O)N1CCC[C@H]1c1ncc(-c2ccc3c(c2)cc2n3C(c3cnc(C4CC4)s3)Oc3cc(-c4cnc([C@@H]5CCCN5C(=O)[C@@H](NC(=O)OC)C(C)C)[nH]4)cc(F)c3-2)[nH]1)C1CCOC(C)(C)C1` (single isomer, unassigned) [Compound 309] yielded an IC50 ([1]; read-out: 2B IC50, replicon 2B) of 0.003 nM, an IC50 [2, 7] of 0.0218 nM and an IC50 [3, 8] of 0.047 nM. For the same molecule, the IC50 [4] was 1.8 pM and the IC50 [5] was 6 pM.

Work on `COC(=O)NC(C(=O)N1[C@@H]2C[C@@H]2C[C@H]1c1ncc(-c2ccc3c(c2)cc2n3C(c3cnc(C4CC4)s3)Oc3cc(-c4cnc([C@@H]5CCCN5C(=O)[C@@H](NC(=O)OC)C(C)C)[nH]4)cc(F)c3-2)[nH]1)C1C[C@@H](C)O[C@@H](C)C1` (single isomer, unassigned) [Compound 310] yielded an IC50 ([1]; read-out: 2B IC50, replicon 2B) of 0.12 nM, an IC50 [2, 7] of 0.0954 nM and an IC50 [3, 8] of 0.806 nM. The IC50 ([4]; Hepatitis C virus) was 2.6 pM and the IC50 ([5]; Hepatitis C virus) was 3 pM.

Molecule `COC(=O)NC(C(=O)N1[C@@H]2C[C@@H]2C[C@H]1c1ncc(-c2ccc3c(c2)cc2n3C(c3cnc(C4CC4)s3)Oc3cc(-c4cnc([C@@H]5CCCN5C(=O)[C@@H](NC(=O)OC)C(C)C)[nH]4)cc(F)c3-2)[nH]1)C1C[C@@H](C)O[C@@H](C)C1` (single isomer, unassigned) [Compound 311] has an IC50 ([1]; read-out: 2B IC50, replicon 2B) of 0.003 nM, an IC50 [2, 7] of 0.0019 nM and an IC50 [3, 8] of 0.011 nM. It also gave an IC50 [4] of 2 pM and an IC50 [5] of 2 pM.

In the case of `COC(=O)NC(C(=O)N1CCCC1c1ncc(-c2cc(F)c3c(c2)OC(c2cnc(C4CCCC4)s2)n2c-3cc3cc(-c4cnc(C5CC6CC6N5C(=O)C(NC(=O)OC)C(C)C)[nH]4)ccc32)[nH]1)C(C)C` (single isomer, unassigned) [Compound 319], the IC50 ([1]; replicon 2B, read-out: 2B IC50) is reported as 0.017 nM, the IC50 ([2]; replicon 1AY93H, read-out: 1A Y93H IC50) is reported as 0.0029 nM and the IC50 ([3]; replicon 1AQ30D, read-out: 1A Q30D IC50) is reported as 0.051 nM. It also gave an IC50 [4] of 2.5 pM and an IC50 [5] of 3 pM.
